Patent US20230166255A1, “Methods And Devices For Detection Of Anticoagulants In Plasma And Whole Blood” (Massachusetts Institute of Technology, priority 2017, published 2023)
Read-outs that look alike come from different tables or passages of the source. One block for each compound: values may come before it.

Legend:
FXa = FXa (Homo sapiens, UniProt P00742); assay: Clotting curves: clot detection time versus FXa agonist gradient (FIGS. 7A-7C); assay type: biochemical
Description: (§1) Clot detection agents can include fluorescent labeled fibrinogen, magnets, beads (may be fluorescent or colored) • b) Load into microfluidic device • i. See, e.g., FIGS. 1A-1D, 2A and 2B for examples of input loading configuration and order • c) Temperature control • i. Room temperature • ii. May increase up to 37° C.
(§2) The time it takes for each of the combinations to form a clot is then plotted. […] Concentration of the agonist (FXa for FIGS. 7A-7C, and FIIa for FIG. 7D) is plotted on the X-axis for each of the figures.

FIIa = FIIa (Homo sapiens, UniProt P00734)
Description: as §1, §2

Factor Xa = Factor Xa (Homo sapiens, UniProt P00742); assay: Clot detection in whole blood in parallel microfluidic channel device pre-coated with Factor Xa; assay type: biochemical; settings: whole blood with unfractionated heparin, 10 minutes
Description: FIGS. 4A and 4B are fluorescent images illustrating clot detection using whole blood in a parallel microfluidic channel device 410 according to an example embodiment. Microfluidic channels 420 were pre-coated with agonist, Factor Xa, at various concentrations (7.5 ng/mL, 75 ng/mL, 750 ng/mL) or with buffer alone (negative control). The fluorescent images are taken at one time point (10 minutes). Microfluidic channels were washed with buffer prior to use to leave only bound FXa within the microfluidic channel. Fresh whole blood was placed into each input port and the blood was drawn in through capillary action. The blood was left to flow for 10 minutes and then the channel was gently washed with buffer. Depicted is a brightfield image of two samples evaluated. […] Unfractionated heparin inhibits Factors IIa and Xa in an antithrombin III-dependent fashion, which is why the addition of these factors at appropriate concentrations can help recover the clotting capability of the sample.

Chain of Factor Xa (P00742 235-488 limits assumed): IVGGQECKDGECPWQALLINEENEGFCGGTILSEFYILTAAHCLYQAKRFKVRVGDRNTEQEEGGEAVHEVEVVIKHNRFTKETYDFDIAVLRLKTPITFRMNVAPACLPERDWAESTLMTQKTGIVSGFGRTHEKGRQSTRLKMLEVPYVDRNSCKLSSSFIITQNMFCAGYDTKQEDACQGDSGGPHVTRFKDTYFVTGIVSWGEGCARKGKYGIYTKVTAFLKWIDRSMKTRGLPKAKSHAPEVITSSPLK
Chain of Factor Xa (P00742 41-179 partner limits assumed): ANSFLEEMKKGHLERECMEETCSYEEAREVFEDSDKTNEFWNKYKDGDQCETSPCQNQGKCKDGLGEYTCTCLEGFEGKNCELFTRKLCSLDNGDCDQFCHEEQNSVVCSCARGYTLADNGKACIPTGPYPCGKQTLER
Chain of FXa (P00742 235-488 limits assumed): as the sequence (P00742 235-488 limits assumed) above
Chain of FXa (P00742 41-179 partner limits assumed): as the sequence (P00742 41-179 partner limits assumed) above

Compound: O=C(NC[C@H]1CN(c2ccc(N3CCOCC3=O)cc2)C(=O)O1)c1ccc(Cl)s1 [Rivaroxaban]
clot formation time (FXa; 250 ng/mL Rivaroxaban, agonist (FXa) concentration down to 375 ng/mL): significantly longer than the negative control but lower than 500 ng/mL | clot formation detected (time) (FXa; 500 ng/mL Rivaroxaban, agonist (FXa) down to 750 ng/mL): < 2.5 min

Compound: Dabigatran
clot formation detected (time) (FIIa; 250 ng/mL Dabigatran, agonist (FIIa) concentration down to 710 ng/mL): < 2.5 min | clot formation detected (time) (FIIa; 500 ng/mL Dabigatran, agonist (FIIa) down to 710 ng/mL): < 2.5 min | clot formation detected (time) (FIIa; < 25 ng/mL Dabigatran, agonist (FIIa) concentration down to 71 ng/mL): < 2.5 min

clot formation (Factor Xa; negative control channel (buffer alone, no FXa)): minimal clot formation
Compound: unfractionated heparin
clot formation (Factor Xa; channels coated with 7.5, 75, 750 ng/mL FXa): gradient of clot formation dependent on the concentration of FXa in the channel
